How the values were obtained:
[1] = tested on: Streptozocin (STZ) induced diabetic rats; assay: Study 1: HCQ and its combination with Losartan in renal damage, comparison with diabetic control; type: in vivo, Wistar rats; details: after 8 weeks oral once daily, Losartan 5.5 mg/kg, Hydroxychloroquine 22.5 mg/kg
Procedure: The Efficacy of the drugs was tested in two different models, one involving comparison with diabetic control (i.e. Diabetic Rats not treated with any medication) and the other involving comparison with the anti-diabetic control group (i.e. Diabetic rats administered Glimepiride) in two separate studies. 25 male Wistar rats weighing 150-250 g were divided randomly into 5 groups consisting of 5 animals each. Diabetes was induced in rats by single administration of streptozotocin (55 mg/kg/i.p) dissolved in 0.1 M-citrate buffer, pH 4.5. Group 1 (normal control) consisted of normal rats that neither received Streptozotocin (STZ) nor any test drug; Group 2 served as streptozotocin induced diabetic control. Group 3 was diabetic rats treated with Losartan (LT) (5.5 mg/kg); Group 4 was diabetic rats treated with Hydroxychloroquine (HCQ) (22.5 mg/kg), Group 5 was diabetic rats treated with combination of HCQ (22.5 mg/kg) and LT (5.5 mg/kg). The study drugs were dissolved/suspended in distilled water and administered orally once a day for eight weeks. Blood glucose levels and renal oxidative stress parameters including TBARS, GSH and total Protein in Kidney Homogenate were assessed after the completion of eighth week of the study.

[2] = tested on: STZ induced diabetic nephropathy in rats; assay: Study 4: HCQ and its combination with Losartan, Telmisartan, Azilsartan and Ramipril, with Glimepiride control; type: in vivo, Wistar rats; details: for HDL / TC / TG / GSH / TBARS / Total protein kidney / Creatinine / Total protein / Urea: after 8th week; for Glucose Day1 / Glucose Day14 / Glucose Day28 / Glucose Day42 / Glucose Day56: blood; for GSH / TBARS / Total protein kidney: kidney homogenate; for Creatinine / Total protein / Urea: serum
Procedure: The methods described in Terri et al, Diabetes Volume, 1997, 46:1612-1618, and Takashi et al, Jpn J. Pharmacol, 1997, 75, 59-64, were followed for inducing Diabetes in rats by injecting Streptozotocin. The Efficacy of the drugs was tested in two different models, one involving comparison with diabetic control (i.e. Diabetic Rats not treated with any medication) and the other involving comparison with the anti-diabetic control group (i.e. Diabetic rats administered Glimepiride) in two separate studies.
Wistar rats of either sex weighing 150-200 g were divided randomly into 28 groups consisting of 6 animals each. Diabetes was induced in rats by single administration of streptozotocin (55 mg/kg/i.p) dissolved in 0.1 M-citrate buffer, pH 4.5. Group 1 (normal control) consisted of normal rats that neither received streptozotocin nor any test drug; Group 2 served as Diabetic control; Group 3 was diabetic rats treated with Hydroxychloroquine (35 mg/kg); Group 4 was diabetic rats treated with Hydroxychloroquine (45 mg/kg) and Group 5 was diabetic rats treated with Hydroxychloroquine (70 mg/kg); Group 6 was diabetic rats treated with Losartan (5.5 mg/kg); Group 7 was diabetic rats treated with Losartan (11 mg/kg); Group 8 was diabetic rats treated with combination of Losartan (5.5 mg/kg) and Hydroxychloroquine (45 mg/kg); Group 9 was diabetic rats treated with combination of Losartan (11 mg/kg) and Hydroxychloroquine (35 mg/kg); Group 10 was diabetic rats treated with Ramipril (0.6 mg/kg); Group 11 was diabetic rats treated with Ramipril (0.3 mg/kg); Group 12 was diabetic rats treated with combination of Ramipril (0.6 mg/kg) and Hydroxychloroquine (35 mg/kg); Group 13 was diabetic rats treated with combination of Ramipril (0.3 mg/kg) and Hydroxychloroquine (45 mg/kg); Group 14 was diabetic rats treated with combination of Ramipril (0.6 mg/kg) and Hydroxychloroquine (45 mg/kg); Group 15 was diabetic rats treated with combination of Ramipril (0.3 mg/kg) and Hydroxychloroquine (35 mg/kg); Group 16 was diabetic rats treated with Telmisartan (9.5 mg/kg); Group 17 was diabetic rats treated with Telmisartan (4.5 mg/kg); Group 18 was diabetic rats treated with combination of Telmisartan (9.5 mg/kg) and Hydroxychloroquine (35 mg/kg); Group 19 was diabetic rats treated with combination of Telmisartan (4.5 mg/kg) and Hydroxychloroquine (45 mg/kg); Group 20 was diabetic rats treated with combination of Telmisartan (9.5 mg/kg) and Hydroxychloroquine (45 mg/kg); Group 21 was diabetic rats treated with combination of Telmisartan (4.5 mg/kg) and Hydroxychloroquine (35 mg/kg); Group 22 was diabetic rats treated with Azilsartan (4.5 mg/kg); Group 23 was diabetic rats treated with Azilsartan (2.5 mg/kg); Group 24 was diabetic rats treated with combination of Azilsartan (4.5 mg/kg) and Hydroxychloroquine (35 mg/kg); Group 25 was diabetic rats treated with combination of Azilsartan (2.5 mg/kg) and Hydroxychloroquine (45 mg/kg); Group 26 was diabetic rats treated with combination of Azilsartan (4.5 mg/kg) and Hydroxychloroquine (45 mg/kg); Group 27 was diabetic rats treated with combination of Azilsartan (2.5 mg/kg) and Hydroxychloroquine (35 mg/kg); Group 28 served as Anti-Diabetic control wherein diabetic rats were treated with antidiabetic drug Glimepiride (GLM) (1 mg/kg).
The study drugs were dissolved/suspended in vehicle and administered orally once a day for eight weeks. The diabetes mellitus induced nephropathy was assessed by estimating the level of serum urea, serum creatinine and total serum protein content after completion of eighth week of study. TBARS, GSH and Total Protein were measured as markers of renal oxidative stress in Kidney Homogenate after completion of eighth week of study. Blood glucose levels were also assessed at weekly interval.

[3] = dose mg/kg: HCQ 35, LT 5.5, RM 0.3, TL 4.5, AZ 2.5, alone or combined with HCQ 35
[4] = dose mg/kg: HCQ 45, LT 11, RM 0.6, TL 9.5, AZ 4.5, alone or combined with HCQ 45

Question: How did the “Blood glucose level (% Control)” value [1] turn out when `CCN(CCO)CCCC(C)Nc1ccnc2cc(Cl)ccc12` (centres unmarked) [Hydroxychloroquine, 2-[{4-[(7-chloroquinolin-4-yl)amino]pentyl}(ethyl)amino]ethanol] was run?
Answer: Its value is “(62.64)) % Control”.

Question: What about the “Blood glucose level Mean ± SEM” value [1] of the same compound?
Answer: Its value is 369.9 ± 42.3 mg/dL.

Question: And the “Total Protein in Kidney Homogenate (% Naive)” value [1]?
Answer: Its value is “(190.71) % Naive”.

Question: And the “Total Protein in Kidney Homogenate Mean ± SEM” value [1]?
Answer: Its value is 1098.00 ± 23.12 µg/mL.

Question: What about the “GSH (% Naive)” value ([1]; kidney homogenate) of the same compound?
Answer: Its value is “(41.92) % Naive”.

Question: What about the “GSH Mean ± SEM” value ([1]; kidney homogenate) of the same compound?
Answer: The value was 0.827 ± 0.08 nM/mg.

Question: And the “TBARS (% Naive)” value ([1]; kidney homogenate)?
Answer: Its value is “(178.29) % Naive”.

Question: What about the “TBARS Mean ± SEM” value ([1]; kidney homogenate) of the same compound?
Answer: Its value is 0.772 ± 0.06 nM/mg.

Question: And the HDL [2, 3]?
Answer: The HDL was 29.5 ± 2.17 mg/dL.

Question: What about the TC [2, 3] of the same compound?
Answer: Its TC is 133.5 ± 3.62 mg/dL.

Question: What about the TG [2, 3] of the same compound?
Answer: The TG was 94.83 ± 2.48 mg/dL.

Question: What about the HDL [2, 4] of the same compound?
Answer: The HDL was 29 ± 2.19 mg/dL.

Question: What about the TC [2, 4] of the same compound?
Answer: The TC was 130.33 ± 2.07 mg/dL.

Question: What about the TG [2, 4] of the same compound?
Answer: The TG was 96.83 ± 2.93 mg/dL.

Question: And the HDL ([2]; dose mg/kg: HCQ 70, GLM 1)?
Answer: Its HDL is 30.67 ± 1.86 mg/dL.

Question: And the TC ([2]; dose mg/kg: HCQ 70, GLM 1)?
Answer: Its TC is 124.67 ± 2.94 mg/dL.

Question: And the TG ([2]; dose mg/kg: HCQ 70, GLM 1)?
Answer: Its TG is 90.17 ± 3.49 mg/dL.

Question: What about the “Glucose Day1” value [2, 3] of the same compound?
Answer: Its value is 268.83 ± 17.77 mg/dL.

Question: And the “Glucose Day1” value [2, 4]?
Answer: The value was 277.5 ± 17.74 mg/dL.

Question: And the “Glucose Day1” value ([2]; dose mg/kg: HCQ 70, GLM 1)?
Answer: Its value is 274.5 ± 16.01 mg/dL.

Question: What about the “Glucose Day14” value [2, 3] of the same compound?
Answer: The value was 203.33 ± 28.11 mg/dL.

Question: What about the “Glucose Day14” value [2, 4] of the same compound?
Answer: Its value is 229.17 ± 10.38 mg/dL.

Question: What about the “Glucose Day14” value ([2]; dose mg/kg: HCQ 70, GLM 1) of the same compound?
Answer: The value was 209.67 ± 21.69 mg/dL.

Question: And the “Glucose Day28” value [2, 3]?
Answer: The value was 176.83 ± 29.1 mg/dL.

Question: What about the “Glucose Day28” value [2, 4] of the same compound?
Answer: Its value is 184.17 ± 14.5 mg/dL.

Question: And the “Glucose Day28” value ([2]; dose mg/kg: HCQ 70, GLM 1)?
Answer: The value was 169.5 ± 10.48 mg/dL.

Question: What about the “Glucose Day42” value [2, 3] of the same compound?
Answer: Its value is 165 ± 13.61 mg/dL.

Question: What about the “Glucose Day42” value [2, 4] of the same compound?
Answer: Its value is 154.17 ± 9.13 mg/dL.

Question: What about the “Glucose Day42” value ([2]; dose mg/kg: HCQ 70, GLM 1) of the same compound?
Answer: The value was 148.67 ± 8.5 mg/dL.

Question: What about the “Glucose Day56” value [2, 3] of the same compound?
Answer: The value was 151.5 ± 7.42 mg/dL.

Question: And the “Glucose Day56” value [2, 4]?
Answer: Its value is 140 ± 7.56 mg/dL.

Question: What about the “Glucose Day56” value ([2]; dose mg/kg: HCQ 70, GLM 1) of the same compound?
Answer: Its value is 130.83 ± 7.22 mg/dL.

Question: What about the GSH [2, 3] of the same compound?
Answer: The GSH was 0.71 ± 0.16 nM/mg.

Question: What about the TBARS [2, 3] of the same compound?
Answer: Its TBARS is 0.67 ± 0.11 nM/mg.

Question: What about the Total protein kidney [2, 3] of the same compound?
Answer: The Total protein kidney was 865.33 ± 27.9 µg/mL.

Question: What about the GSH [2, 4] of the same compound?
Answer: Its GSH is 0.7 ± 0.17 nM/mg.

Question: And the TBARS [2, 4]?
Answer: The TBARS was 0.65 ± 0.13 nM/mg.

Question: And the Total protein kidney [2, 4]?
Answer: The Total protein kidney was 831.67 ± 24.15 µg/mL.

Question: And the GSH ([2]; dose mg/kg: HCQ 70, GLM 1)?
Answer: Its GSH is 0.67 ± 0.19 nM/mg.

Question: What about the TBARS ([2]; dose mg/kg: HCQ 70, GLM 1) of the same compound?
Answer: Its TBARS is 0.63 ± 0.12 nM/mg.

Question: What about the Total protein kidney ([2]; dose mg/kg: HCQ 70, GLM 1) of the same compound?
Answer: Its Total protein kidney is 752.33 ± 18.8 µg/mL.

Question: And the Creatinine [2, 3]?
Answer: Its Creatinine is 3.11 ± 0.16 mg/dL.

Question: And the Total protein [2, 3]?
Answer: The Total protein was 4.52 ± 0.39 g/dL.

Question: And the Urea [2, 3]?
Answer: The Urea was 44.33 ± 1.75 mg/dL.

Question: And the Creatinine [2, 4]?
Answer: Its Creatinine is 2.99 ± 0.34 mg/dL.

Question: And the Total protein [2, 4]?
Answer: The Total protein was 5.4 ± 0.36 g/dL.

Question: And the Urea [2, 4]?
Answer: The Urea was 40.83 ± 2.14 mg/dL.

Question: And the Creatinine ([2]; dose mg/kg: HCQ 70, GLM 1)?
Answer: Its Creatinine is 2.68 ± 0.23 mg/dL.

Question: What about the Total protein ([2]; dose mg/kg: HCQ 70, GLM 1) of the same compound?
Answer: Its Total protein is 5.72 ± 0.3 g/dL.

Question: And the Urea ([2]; dose mg/kg: HCQ 70, GLM 1)?
Answer: Its Urea is 38.17 ± 1.47 mg/dL.

From patent US20160030415A1, “TREATMENT AND PROPHYLAXIS OF KIDNEY DISEASES” (priority 2013, published 2016)
